Assay results reported in patent US20040097433A1, “Chroman derivatives for the reduction of inflammation symptoms” (priority 2002, published 2004).

Legend:
[1] = test system: ELAM (E-selectin); assay: Cell-ELAM (E-selectin) assay; assay type: cell-based; details: Endothelial cell, 6 h, endothelial cells stimulated with LPS and IL-1β for 6 hours; E-selectin antibody ELISA; read-out: EC50 for reducing the expression of ELAM
Description: Another useful cell screening assay, exemplified herein in Example 1B, is the E-selectin (ELAM) production assay, which measures activity of test compounds in reducing expression of ELAM in activated endothelial cells. Briefly, endothelial cells are activated by adding known activators such as lipopolysaccharide, TNF-α, or IL-1β, alone or in some combination. Activated cells produce ELAM, which can be measured using, for example, an E-selectin monoclonal antibody-based ELISA assay. In studies carried out in support of the present invention, ELAM production was decreased. As described herein, chroman derivatives were able to reduce ELAM production in an assay such as the one described in Example 1B.
B. Cell-ELAM Assay. Endothelial-Leukocyte Adhesion Molecule (ELAM), also known as E-selectin, is expressed on the surface of endothelial cells. In this assay, lipopolysaccharide (LPS) and IL-1β are used to stimulate the expression of ELAM; test agents are tested for their abilities to reduce this expression, in accordance with studies showing that reduction of leukocyte adhesion to endothelial cell surface is associated with decreased cellular damage (e.g., Takada, M., Et al., Transplantation 64: 1520-25, 1997; Steinberg, J. B., et al., J. Heart Lung Trans. 13:306-313, 1994).
Endothelial cells may be selected from any of a number of sources and cultured according to methods known in the art; including, for example, coronary artery endothelial cells, human brain microvascular endothelial cells (HBMEC; Hess, D. C., et al., Neurosci. Lett. 213(1): 37-40,1996), or lung endothelial cells. Cells are conveniently cultured in 96-well plates. […] Wells are allowed to develop for 35 minutes, before measurement at 402 nm in a Fluoroskan® Reader with shake program for 10 seconds. Positive results are recorded as a decrease in ELAM concentration in tested wells, as compared to control wells.

[2] = test system: CD-1 mice; assay: Arachidonic acid ear inflammation model; assay type: in vivo, mouse; details: topical to left ear, 20 μL in 70% ethanol/30% propylene glycol; ear punch weight difference one hour after treatment
Description: This assay measures the ability of test compounds to prevent or reduce inflammation secondary to oxazolone or arachidonic acid.
A. Arachidonic acid. Albino male CD-1 mice, 7-9 weeks old were used in this test. A 20% (w/v) arachidonic acid solution in acetone was prepared. Twenty microliters of the arachidonic acid solution was applied to the dorsal left ear of the mouse. Immediately thereafter, test compounds (20 μL in 70% ethanol/30% propylene glycol) were applied to the left ear. The untreated right ears served as control. Mice are sacrificed by CO2 inhalation, one hour after treatment. The left and right ears were removed and 7 mm punch biopsies taken from each. The punch biopsies were weighed, and the differences calculated.

[3] = test system: CRP; assay: Human Hep3B cells CRP assay; assay type: cell-based; details: for reduction of CRP levels (in words): CRP assay of Example 1A; for EC50: Homo sapiens, 72 h, Hep3B cells stimulated with IL-1β, IL-6 and dexamethasone, three days, CRP ELISA on supernatant, normalized to cell count, read-out: EC50 for reducing CRP levels
Description: In studies carried out in support of the present invention, a combination of Interleukin-1β, IL-6, and dexamethasone is used to induce CRP production, and counter-agents are tested for their ability to reduce this production in cultured liver cells, as detailed in Example 1A. The assay is performed on cells grown in 96-well format allowing high throughput screening of compounds. As described herein, chroman derivatives were able to reduce CRP levels in an assay such as the one described in Example 1A.
A. Human Hep3B Cells—CRP assay. Hep3B Cell Line is obtained from the American Type Culture Collection (ATCC Catalog No. HB-8064). The Hep3B cell line was derived from liver tissue of […]. The cells are epithelial in morphology and produce tumors in nude mice. The cells produce α-fetoprotein, hepatitis B surface antigen, albumin, α-2-macroglobulin, α-1-antitrypsin, transferrin, plasminogen, complement C3 and β-lipoprotein (Knowles B B, et al., Science, 1980, 209:497499). This cell line has been widely used to study hepatocyte cytokine and acute phase protein release (e.g., Damtew B, et al., 1993, J. Immunol. 150:4001-4007).
HEP3B cells are grown in Minimum Essential Medium (MEM; GIBCO) supplemented with 10% Fetal Bovine Serum (FBS; Hyclone), 1× Penicillin/Streptomycin (GIBCO, Cat#. 15140-122) and 0.1 mM non-essential amino acids (GIBCO, Catalog No. 11140-050). Cells are thawed and transferred to warm medium according to standard methods known in the art.
Cells are incubated in flasks at 37° C. with 5% CO2 in an air atmosphere incubator. HEP3B growth media is changed every 2 days until the cells reach 70-80% confluence (approx. 3-4 days). For assay, the cells are transferred to 96-well plates, seeded at 5000 cells per well in culture media, and left to grow for 7 days in a 37° C. incubator (air supplemented with 5% CO2). Media is replaced daily until assay. […]
100 μl HRP-conjugated rabbit anti-human CRP (DAKO) diluted 1:500 (in CRP wash buffer) is added to each well, followed by incubation for 30 minutes at 37° C. […] Finally, 50 μl of 1M H2SO4 is added to each well and absorbance at 450 nm is immediately measured in a microtiter spectrophotometer.
CRP measured as above is normalized to cell count per well, using a cell viability assay, such as the Cell Tracker Green assay. […] Plates are immediately read using a Fluoroskan® flourometer with a 485 excitation/538 emission filter pair.

SMILES | EC50 [1] | protection in arachidonic acid ear inflammation assay [2] | reduction of CRP levels (in words) [3] | EC50 [3]
Cc1c(O)cc2c(c1C)OC(C)(CCC(=O)O)CC2 (stereo not drawn) [3-(6-hydroxy-2,7,8-trimethyl-chroman-2-yl)-propionic acid] |  |  | effective at reducing CRP levels | 40 to 60 µM
COC(=O)CCC1(C)CCc2cc(O)c(C)c(C)c2O1 (stereo not drawn) [3-(6-hydroxy-2,7,8-trimethyl-chroman-2-yl)propionic acid methyl ester] |  |  | effective at reducing CRP levels | 10 to 30 µM

Continued, in another order:

EC50 [1] | SMILES | protection in arachidonic acid ear inflammation assay [2] | reduction of CRP levels (in words) [3] | EC50 [3]
10 to 100 µM | COC(=O)CCC1(C)CCc2c(Br)c(O)c(C)c(C)c2O1 (stereo not drawn) [3-(5-Bromo-6-hydroxy-2,7,8-trimethyl-chroman-2-yl)-propionic acid methyl ester] | about 40% |  | 
10 to 100 µM | CC1(CCC(=O)O)CCc2ccc(O)c(O)c2O1 (stereo not drawn) [3-(7,8-Dihydroxy-2-methyl-chroman-2-yl)-propionic acid] | about 40% |  | 
10 to 100 µM | Cc1c(C)c2c(c(C)c1O)CCC(C)(C(=O)NCC1C3CC4CC(C3)CC1C4)O2 (stereo not drawn) [6-Hydroxy-2,5,7,8-tetramethyl-chroman-2-carboxylic acid (adamantan-2-ylmethyl)-amide] |  |  | 
